Here are results for 2 compounds from US7588885B2, “Use of biocistronic DNA constructs for identifying compounds that inhibit IRES-dependent translation” (Chung Yuan Christian University, priority 2004, dated 2009).

Structures are written as SMILES. Values after ≈ are worked out from the molar mass of the structure shown.

As usually defined, the IC50 is the point on the concentration scale where inhibition reaches its midpoint. In general, inhibition refers to the change of the read-out against control, counted positive when it falls.

Experiment [1] deals with IRES of EV71. In words: cells. To be noted: for selective inhibition on IRES-dependent translation without affecting CAP-dependent translation (screening, FIG. 2): Cos-1 cells transfected with EV-71 IRES construct, amantadine 0.1 mg/ml, IFN-α 10 units, stavudine 0.05 mg/ml, 12 hrs. Format: cell-based. How it is done:
(§1) Plasmid PGS-EMCV is constructed by inserting into the plasmid pTriEx-4 (obtained from Novagene) template sequences of two reporter genes (cistrons), i.e., β-galactosidase (β-gal), and secreted human placental alkaline phosphatase (SEAP), with a promoter upstream of the first cistron (i.e., β-gal) and an EMCV-IRES sequence downstream of it, between the first cistron and the second cistron (i.e., SEAP). Plasmid pGS-EV71 and pGS-HCV are prepared in similar manner except an EV71-IRES sequence or a HCV-IRES sequence was used to replace the EMCV-IRES sequence.
(§2) The kidney cells from African green monkey, i.e., Cos-1 cells, were transfected with the bicistronic DNA constructs prepared according to Example 1. The method of transfection is well known in the art. Briefly, a transfecting stock solution was prepared as follows: 1) solution A: 1 μg of the bicistronic DNA constructs of Example 1 was dissolved in serum free culturing medium, with its final volume adjusted to be 50 μl; 2) solution B: 2 μl of lipofectAMINE 2000 (obtained from Invitrogen) was mixed with 50 μl of serum free culturing medium; 3) mixed solution A with solution B. Cos-1 cells (0.5−2×10^5/well, 24 wells) were first incubated with 500 μl of the serum free culturing medium for a period of 20 min, and then 102 μl of the transfecting stock solution prepared above was added. The transfected cells were then return to culture environment (37°C., 5% CO2). After 12 hrs, the culturing medium were replaced by a medium containing fetal bovine serum and antibiotics, the transfected cells were continued to culture for another 12 hrs before used in the following compound screening procedure.
The candidate compounds prepared according to the methods described above were dissolved in PBS, with stock concentration to be 10 mg/ml. These stock solutions were then diluted to proper ranges according to various screening conditions required.
(§3) Reporter proteins activities, i.e., secreted Human Alkaline Phosphatase (SEAP) and β-galactosidase (β-gal), were measured with BD Great EscApe SEAP Detection kit (Cat. No. K2041-1, available from Clontech) and Luminescent β-gal Detection kit (Cat. No. K2048-1, available from Clontech), respectively, according to the manufacturer's instruction.

Experiment [2] deals with IRES of EMCV. Put plainly: Bicistronic pGS-EMCV reporter assay in Cos-1 cells, SEAP activity (IRES-dependent translation). It is filed as cell-based. The procedure: as §1, §2
The candidate compounds prepared according to the methods described above were dissolved in PBS, with stock concentration to be 10 mg/ml. These stock solutions were then diluted to proper ranges according to various screening conditions required. […] Then, the identified tested compound can be used in preparation of a medicament for treating EV or EMCV infection.
as §3
A general note: A reporter such as luciferase makes a cellular process visible.

Experiment [3] deals with CAP-dependent translation. Put plainly: Bicistronic pGS-EV71 reporter assay in Cos-1 cells, β-gal activity (CAP-dependent translation). It is filed as cell-based, African green monkey. The procedure: as §1
(§4) The kidney cells from African green monkey, i.e., Cos-1 cells, were transfected with the bicistronic DNA constructs prepared according to Example 1. The method of transfection is well known in the art. […]
as §3

The subject of experiment [4] is CAP-dependent translation. Put plainly: Bicistronic pGS-EMCV reporter assay in Cos-1 cells, β-gal activity (CAP-dependent translation). Format: cell-based, African green monkey. The procedure:
as §1, §4, §3

Experiment [5] has as its system EV-71. Put plainly: EV-71 whole cell antiviral activity. It is filed as cell-based. The settings on record: Enterovirus A, EV71.
The subject of experiment [6] is IRES of HCV. Put plainly: Bicistronic pGS-HCV reporter assay (IRES of HCV). It is filed as cell-based, HCV (hepatitis C virus). To be noted: data not shown. How it is done:
as §1, §4, §3

`NC12CC3CC(CC(C3)C1)C2` [amantadine, 1-Aminoadamantane]: the “selective inhibition on IRES-dependent translation without affecting CAP-dependent translation (screening, FIG. 2)” value in experiment [1] is listed as “selective inhibition on IRES-dependent translation without affecting CAP-dependent translation”. Moreover, the IC50 in experiment [1] (Enterovirus A, EV71, COS-1, read-out: calculated IC50 for inhibition of IRES-dependent translation of EV71) is ~55 µg/mL (≈ 364 µM); in experiment [2] (Cardiovirus A, COS-1, read-out: calculated IC50 for inhibition of IRES-dependent translation of EMCV), ~45 µg/mL (≈ 298 µM); in experiment [5], ~8820 µg/mL (≈ 58300 µM). Moreover, the inhibition at 250 µg/mL in experiment [1] (Enterovirus A, EV71, COS-1, read-out: inhibition of IRES-dependent translation activity) was ~80%; in experiment [2] (Cardiovirus A, COS-1, read-out: inhibition of IRES-dependent translation activity) it was ~80%. Further, the entries for the “gene inhibition (EV71-IRES mediated gene expression)” value in experiment [1] (dose of about 0.01 mg/ml (FIG. 5A)) and in experiment [1] (dose of about 0.25 mg/ml (FIG. 5A)) were 20% and 80%, respectively. Moreover, the “effect on SEAP activities” value in experiment [1] (pGS-EV71 transfected cells, 0.01 mg/ml to 0.25 mg/ml (FIG. 3B)) is listed as “inhibits SEAP activities”; in experiment [2] (pGS-EMCV transfected cells, 0.01 mg/ml to 0.25 mg/ml (FIG. 4B)) it was “inhibits SEAP activities”. Besides, the “gene inhibition (EMCV-IRES mediated gene expression)” value in experiment [2] (dose of about 0.05 mg/ml (FIG. 5B)) came to 20%; in experiment [2] (dose of about 0.25 mg/ml (FIG. 5B)) it was 80%. Also, the “effect on CAP-dependent translation activity” value in experiment [3] (0.25 mg/ml, pGS-EV71 cells (FIG. 3)) was “relatively no effect”; in experiment [4] (0.25 mg/ml, pGS-EMCV cells (FIG. 4)) it was “relatively no effect”. The “effect on β-gal activities” value in experiment [3] (pGS-EV71 transfected cells, 0.01 mg/ml to 0.25 mg/ml (FIG. 3A)) is “little or no effect”; in experiment [4] (pGS-EMCV transfected cells, 0.01 mg/ml to 0.25 mg/ml (FIG. 4A)), “little or no effect”. Also, the “effects on IRES of HCV” value in experiment [6] is listed as “no effects”.
With `Cc1cn([C@H]2C=C[C@@H](CO)O2)c(=O)[nH]c1=O` [stavudine], the “selective inhibition on IRES-dependent translation without affecting CAP-dependent translation (screening, FIG. 2)” value in experiment [1] is “only amantadine demonstrates selective inhibition”.
